From the supplement of paper PMC10627819

Experiments:
Assay in all cases: Bliss interaction score (quartile over a dose matrix) (fitness difference); higher = more antagonism (negative = synergy)
[1] = system: S. aureus Newman
Summary of the method: (§1)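 Quartiles of the Bliss score were taken over technical, biological and donor/recipient replicates. That score is observed fitness minus the product of the single-drug fitness values, which were inferred from combination data. Fitness itself is OD595 at entry into stationary phase divided by the plate's robust no-drug mean, with a cap at 1.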

[2] = system: S. aureus DSM 20231
Summary of the method: as §1

[3] = system: B. subtilis 168
Summary of the method: as §1

[4] = system: S. pneumoniae D39V
Summary of the method: as §1
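Note: first quartile when negative (synergy) and third quartile when positive (antagonism).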

Structure (SMILES)	Bliss interaction score [1]	Bliss interaction score [2]	Bliss interaction score [3]	Bliss interaction score [4]
CC(=O)Oc1ccccc1C(=O)O [Acetylsalicylicacid] + CN[C@@H]1[C@H](O)[C@H](NC)[C@H]2O[C@@]3(O)C(=O)C[C@@H](C)O[C@H]3O[C@@H]2[C@H]1O [Spectinomycin]	0.0859	-0.0696	0.137	-0.0679
CC(=O)Oc1ccccc1C(=O)O [Acetylsalicylicacid] + CN[C@@H]1[C@H](O[C@H]2[C@H](O[C@H]3[C@H](O)[C@@H](O)[C@H](N=C(N)N)[C@@H](O)[C@@H]3N=C(N)N)O[C@@H](C)[C@]2(O)C=O)O[C@@H](CO)[C@H](O)[C@H]1O [Streptomycin]	0.0762	-0.0889	0.222	-0.0479
CC(=O)Oc1ccccc1C(=O)O [Acetylsalicylicacid] + CN[C@H](CC(C)C)C(=O)N[C@H]1C(=O)N[C@@H](CC(N)=O)C(=O)N[C@H]2C(=O)N[C@H]3C(=O)N[C@H](C(=O)N[C@H](C(=O)O)c4cc(O)cc(O)c4-c4cc3ccc4O)[C@H](O)c3ccc(c(Cl)c3)Oc3cc2cc(c3O[C@@H]2O[C@H](CO)[C@@H](O)[C@H](O)[C@H]2O[C@H]2C[C@](C)(N)[C@H](O)[C@H](C)O2)Oc2ccc(cc2Cl)[C@H]1O [Vancomycin]	0.0599	-0.0542	-0.0629	0.114
CC(=O)Oc1ccccc1C(=O)O [Acetylsalicylicacid] + CN[C@H](CC(C)C)C(=O)N[C@H]1C(=O)N[C@@H](CC(N)=O)C(=O)N[C@H]2C(=O)N[C@H]3C(=O)N[C@H](C(=O)N[C@H](C(=O)O)c4cc(O)cc(O)c4-c4cc3ccc4O)[C@H](O[C@H]3C[C@](C)(N)[C@@H](O)[C@H](C)O3)c3ccc(c(Cl)c3)Oc3cc2cc(c3O[C@@H]2O[C@H](CO)[C@@H](O)[C@H](O)[C@H]2O[C@H]2C[C@](C)(NCc3ccc(-c4ccc(Cl)cc4)cc3)[C@@H](O)[C@H](C)O2)Oc2ccc(cc2Cl)[C@H]1O [Oritavancin]	0.086	0.0533	-0.0215	0.071
CC(=O)Oc1ccccc1C(=O)O [Acetylsalicylicacid] + CO/N=C(\C(=O)N[C@@H]1C(=O)N2C(C(=O)O)=C(COC(C)=O)CS[C@H]12)c1csc(N)n1 [Cefotaxime]	-0.0434	-0.1	0.172	0.138
CC(=O)Oc1ccccc1C(=O)O [Acetylsalicylicacid] + CO/N=C(\C(=O)N[C@@H]1C(=O)N2C(C(=O)O)=C(COC(N)=O)CS[C@H]12)c1ccco1 [Cefuroxime]	0.0943	-0.628	0.177	0.057
CC(=O)Oc1ccccc1C(=O)O [Acetylsalicylicacid] + CO/N=C(\C(=O)N[C@@H]1C(=O)N2C(C(=O)[O-])=C(C[N+]3(C)CCCC3)CS[C@H]12)c1csc(N)n1 [Cefepime]	0.0506	0.097	0.167	0.118
CC(=O)Oc1ccccc1C(=O)O [Acetylsalicylicacid] + CO[C@@H]1[C@@H](OC(N)=O)[C@@H](O)[C@H](Oc2ccc3c(O)c(NC(=O)c4ccc(O)c(CC=C(C)C)c4)c(=O)oc3c2C)OC1(C)C [Novobiocin]	-0.0718	-0.068	-0.146	0.123
CC(=O)Oc1ccccc1C(=O)O [Acetylsalicylicacid] + CO[C@@]12[C@H](COC(N)=O)C3=C(C(=O)C(C)=C(N)C3=O)N1C[C@@H]1N[C@@H]12 [MitomycinC]	-0.0274	0.0545	-0.0648	0.0652
CC(=O)Oc1ccccc1C(=O)O [Acetylsalicylicacid] + CO[C@H]1/C=C/O[C@@]2(C)Oc3c(C)c(O)c4c(O)c(c(/C=N/N5CCN(C)CC5)c(O)c4c3C2=O)NC(=O)/C(C)=C\C=C\[C@H](C)[C@H](O)[C@@H](C)[C@@H](O)[C@@H](C)[C@H](OC(C)=O)[C@@H]1C [Rifampicin]	0.036	0.0617	0.131	0.0476
CC(=O)Oc1ccccc1C(=O)O [Acetylsalicylicacid] + COc1c(N2C[C@@H]3CCCN[C@@H]3C2)c(F)cc2c(=O)c(C(=O)O)cn(C3CC3)c12 [Moxifloxacin]	0.114	0.114	-0.0213	0.0628
CC(=O)Oc1ccccc1C(=O)O [Acetylsalicylicacid] + COc1cc(Cc2cnc(N)nc2N)cc(OC)c1OC [Trimethoprim]	0.0981	-0.0672	0.123	-0.163
CC(=O)Oc1ccccc1C(=O)O [Acetylsalicylicacid] + COc1ccc(C[C@H](N)C(=O)N[C@H]2[C@@H](O)[C@H](n3cnc4c(N(C)C)ncnc43)O[C@@H]2CO)cc1 [Puromycin]	-0.0494	0.0722	0.0812	0.149
CC(=O)Oc1ccccc1C(=O)O [Acetylsalicylicacid] + COc1cccc2c1C(=O)c1c(O)c3c(c(O)c1C2=O)C[C@@](O)(C(=O)CO)C[C@@H]3O[C@H]1C[C@H](N)[C@H](O)[C@H](C)O1 [Doxorubicin]	0.0561	0.0666	0.225	0.0551
CC(=O)Oc1ccccc1C(=O)O [Acetylsalicylicacid] + C[C@@H]1O[C@@H]1P(=O)(O)O [Fosfomycin]	-0.0772	0.0721	-0.291	0.119
CC(=O)Oc1ccccc1C(=O)O [Acetylsalicylicacid] + C[C@@H](O)[C@H]1C(=O)N2C(C(=O)O)=C(SCCNC=N)C[C@H]12 [Imipenem]	0.0337	0.0498	-0.34	0.0958

Structure (SMILES)	Bliss interaction score [1]	Bliss interaction score [2]	Bliss interaction score [3]	Bliss interaction score [4]
CC(=O)Oc1ccccc1C(=O)O [Acetylsalicylicacid] + C[C@H]1COc2c(N3CCN(C)CC3)c(F)cc3c(=O)c(C(=O)O)cn1c23 [Levofloxacin]	0.12	0.0854	0.12	0.142
CC(=O)Oc1ccccc1C(=O)O [Acetylsalicylicacid] + C[C@H]1c2cccc(O)c2C(=O)C2=C(O)[C@]3(O)C(=O)C(C(N)=O)=C(O)[C@@H](N(C)C)[C@@H]3[C@@H](O)[C@@H]21 [Doxycycline]	0.0416	-0.0455	-0.164	0.1
CC(=O)Oc1ccccc1C(=O)O [Acetylsalicylicacid] + C[n+]1ccc(-c2cc[n+](C)cc2)cc1 [Paraquat]	0.0558	0.067	0.067	-0.0664
CC(=O)Oc1ccccc1C(=O)O [Acetylsalicylicacid] + Cc1cc(NS(=O)(=O)c2ccc(N)cc2)no1 [Sulfamethoxazol]	-0.0624	-0.0892	0.0808	-0.0493
CC(=O)Oc1ccccc1C(=O)O [Acetylsalicylicacid] + Cc1ncc([N+](=O)[O-])n1CCO [Metronidazole]	-0.0652	0.0605	0.203	0.056
CC(=O)Oc1ccccc1C(=O)O [Acetylsalicylicacid] + Cc1onc(-c2ccccc2)c1C(=O)N[C@@H]1C(=O)N2[C@@H]1SC(C)(C)[C@@H]2C(=O)O [Oxacillin]	0.0916	0.113	0.0506	0.0623
CC(=O)Oc1ccccc1C(=O)O [Acetylsalicylicacid] + Clc1ccc(COC(Cn2ccnc2)c2ccc(Cl)cc2Cl)c(Cl)c1 [Miconazole]	0.0722	0.0658	0.0955	-0.0711
CC(=O)Oc1ccccc1C(=O)O [Acetylsalicylicacid] + Cn1nnc(-c2ccc(-c3ccc(N4C[C@H](CO)OC4=O)cc3F)cn2)n1 [Tedizolid]	0.0641	-0.124	-0.184	0.0802
CC(=O)Oc1ccccc1C(=O)O [Acetylsalicylicacid] + N[C@@H]1CONC1=O [CycloserineD]	-0.115	0.0689	0.221	0.146
CC(=O)Oc1ccccc1C(=O)O [Acetylsalicylicacid] + O=C1CN(/N=C/c2ccc([N+](=O)[O-])o2)C(=O)N1 [Nitrofurantoin]	-0.0905	-0.0978	-0.202	0.0904
CC(=O)Oc1ccccc1C(=O)O [Acetylsalicylicacid] + O=C(N[C@H](CO)[C@H](O)c1ccc([N+](=O)[O-])cc1)C(Cl)Cl [Chloramphenicol]	0.0794	-0.0904	0.0772	0.115
CC(=O)Oc1ccccc1C(=O)O [Acetylsalicylicacid] + O=C(O)[C@H]1/C(=C/CO)O[C@@H]2CC(=O)N21 [Clavulanic]	0.0986	-0.553	0.0831	0.0345
CC(=O)Oc1ccccc1C(=O)O [Acetylsalicylicacid] + O=C(O)c1cn(C2CC2)c2cc(N3CCNCC3)c(F)cc2c1=O [Ciprofloxacin]	0.158	0.142	0.146	0.144
CC(=O)Oc1ccccc1C(=O)O [Acetylsalicylicacid] + O=C(O[C@@H]1Cc2c(O)cc(O)cc2O[C@@H]1c1cc(O)c(O)c(O)c1)c1cc(O)c(O)c(O)c1 [EGCG]	0.0426	0.159	0.141	-0.0702
CC(=O)Oc1ccccc1C(=O)O [Acetylsalicylicacid] + Oc1cc(Cl)ccc1Oc1ccc(Cl)cc1Cl [Triclosan]	-0.0273	-0.114	0.129	-0.0513
N#CC(C#N)=NNc1cccc(Cl)c1 [CCCP] + C/C(=C\C(=O)OCCCCCCCCC(=O)O)C[C@@H]1OC[C@H](C[C@@H]2O[C@H]2[C@@H](C)[C@H](C)O)[C@@H](O)[C@H]1O [Pseudomonic acid]	-0.0111	0.0141	-0.137	0.0939
